Measurements reported in patent US8105836B2, “Chemical inhibitors of mismatch repair” (priority 2001, dated 2012).
“Also recorded” adds a separate entry of the source.

Experiments:
[1] = test system: MMR activity (ATPase-dependent); settings: in vitro assays; Galio 1999, Allen 1997, Bjornson 2000; cited from earlier work
[2] = test system: mismatch repair (MMR) in H36 pCAR-OF cells; format: cell-based, murine; settings: for generation of β-galactosidase positive cells / MI and shifting of the polynucleotide tract in the pCAR-OF reporter: H36 pCAR-OF cells
[3] = test system: human HEK293 cells (BAT26 microsatellite marker); test: BAT26 microsatellite instability of endogenous loci in 293 cells (PCR, cloning, sequencing); format: cell-based
Procedure: (§1) Briefly, 10^5 cells were grown in control medium or 250 μM DMA, a concentration that is found to be non-toxic, for 14 to 17 days. Cells are then harvested and genomic DNA isolated using the salting out method (Nicolaides, N. C. et al. (1991) Mol. Cell. Biol. 11:6166-6176.).
Various amounts of test DNAs from HCT116 (a human colon epithelial cell line) and 293 were first used to determine the sensitivity of our microsatellite test. The BAT26 alleles are known to be heterogeneous between these two cell lines and the products migrate at different molecular weights (Nicolaides personal observation). DNAs were diluted by limiting dilution to determine the level of sensitivity of the assay. DNAs were PCR amplified using the BAT26F: 5′-[…]-3′ (SEQ ID NO:43) and the BAT26R: 5′-[…]-3′ (SEQ ID NO:44) primers in buffers as described (Nicolaides, N. C. et al. (1995) Genomics 30:195-206). Briefly 1 pg to 100 ngs of DNA were amplified using the following conditions: 94° C. for 30 sec, 58° C. for 30 sec, 72° C. for 30 sec for 30 cycles. […]
To measure for microsatellite stability in 293 cells grown with or without DMA, 0.1 ngs of DNA from DMA-treated or control 293 cells were amplified using the reaction conditions above. […] Fifty bacterial colonies were analyzed for BAT26 structure by directly adding an aliquot of live bacteria to the PCR mix. […]

Arabidopsis thaliana [4] = test: Toxicity curve on Arabidopsis seeds on MS phytagar plates (root and shoot formation); format: in vivo; settings: for Dead: non-germinated seeds
Procedure: Briefly, AT seeds were sterilized with straight commercial bleach and 100 seeds were plated in 100 mm Murashige and Skoog (MS) phytagar (Life Technology) plates with increasing amounts of DMA (ranging from 100 μm to 50 mM). A similar amount of seeds were plated on MS phytagar only or in MS phytagar with increasing amounts of EMS (1001M to 50 mM), a mutagen commonly used to mutate AT seeds (McCallum, C. M. et al. (2000) Nat. Biotechnol. 18:455-457). Plates were grown in a temperature-controlled, fluorescent-lighted humidifier (Percival Growth Chamber) for 10 days. After 10 days, seeds were counted to determine toxicity levels for each compound. […] Plantlets that were identical to untreated seeds were scored healthy. Seeds with stunted root or shoot formation were scored intermediate (inter). Non-germinated seeds were scored dead.

Arabidopsis thaliana [5] = test: New phenotypes in offspring of chemically exposed Arabidopsis plants; format: in vivo; settings: for offspring with small light green appearance (altered phenotype): offspring grown in standard soil conditions for 17 days, FIG. 6; for phenotypically distinct plants among offspring at day 10: offspring of plants grown from seeds on 2 mM DMA or 250 μM EMS for 10 days
Procedure: Next, 50 seeds were plated in two 150 mm dishes containing 2 mM DMA, 250 μM EMS or no drug. Seeds were grown for 10 days and then 10 plants from each plate were transferred to soil. All plants appeared to be similar in color and height. Plants were grown at room temperature with daily cycles of 18 hr light and 6 hr dark. After 45 days seeds are harvested from siliques and stored in a desiccator at 4° C. for 72 hours. Seeds are then sterilized and 100 seeds from each plant is sown directly into water-saturated soil and grown at room temperature with daily cycles of 18 hr light and 6 hr dark. […] These 7 altered plants were light green in color and appeared to grow slower. […] DMA-exposed plants produced offspring that were yellow in appearance in contrast to dark green, which is always found in wild-type plants. In addition, the yellow plants were also shorter. After 30 days, most wild-type plants produced flowers and siliques, while the 7 mutants just began flowering. After 45 days, control plants were harvested while mutant plants were harvested 10 to 15 days later.

[6] = test system: Pichia yeast containing GUS-OF reporter; test: Pichia yeast pGUS-OF MMR-sensitive reporter assay (X-glu plates); format: cell-based; settings: GUS-OF Pichia incubated with 300 μM chemical for 48 hours
Procedure: Briefly, the GUS-OF and GUS-IF gene, which contains a polyA repeat at the N-terminus of the protein was subcloned from the pCR-IF-GUS and pCR-OF-GUS plasmids into the EcoRI site of the pGP vector, which is a consitutively expressed yeast vector containing a zeocin resistance gene as selectable marker. pGP-GUS-IF and pGP-GUS-OF vectors were electroporated into competent Pichia cells using standard methods known by those skilled in the art. Cells were plated on YPD agar (10 g/L yeast extract; 20 g/L peptone; 2% glucose; 1.5% bactoagar) plates containing 100 μg/ml zeocin. Recombinant yeast are then analyzed for GUS expression/function by replica plating on YPD agar plates containing 100 μg/ml zeocin plus 1 mg/ml X-glu (5-bromo-4-chloro-3-indoyl-beta-D-glucuronide sodium salt) and grown at 30° C. for 16 hours. […] None of the yeast containing the GUS-OF turned blue in the presence of the X-glu substrate under normal growth conditions.
After incubation, yeast were plated on YPD-ZEO-X-GLU plates and grown at 30° C. for 16 hours.

human HEK293 cells = test: Toxicity of DMA to 293 cells in culture; format: cell-based; settings: 14 to 17 days
Procedure: as §1

[7] = at high concentrations; Myers et al. 1988; cited from earlier work
MMR defective cell lines = settings: mammalian cells; Chen et al. 2000; cited from earlier work
[8] = Arabidopsis thaliana, in vivo, 10 days, 2.5 mM
[9] = Arabidopsis thaliana, in vivo, 10 days, 5 mM
[10] = Arabidopsis thaliana, in vivo, 10 days, 10 mM
[11] = Arabidopsis thaliana, in vivo, 10 days, 12.5 mM
[12] = Arabidopsis thaliana, in vivo, 10 days, 25 mM
[13] = Arabidopsis thaliana, in vivo, 10 days, 50 mM

In the case of `Nc1ncnc2c1ncn2[C@@H]1O[C@H](COP(=O)(O)OP(=O)(O)NP(=O)(O)O)[C@@H](O)[C@H]1O` [AMP-PNP], the “effect on MMR activity in vitro” value [1] is listed as “block the MMR activity”.
For `Nc1ncnc2c1ncn2[C@@H]1O[C@H](COP(=O)(O)OP(=O)(O)OP(O)(O)=S)[C@@H](O)[C@H]1O` [ATP[gamma]S], the “effect on MMR activity in vitro” value [1] is given as “block the MMR activity”.
With `Cc1c2ccccc2c(C)c2ccccc12` [DMA, 9,10-dimethylanthracene] the “generation of β-galactosidase positive cells / MI and shifting of the polynucleotide tract in the pCAR-OF reporter” value [2] was “produces b-gal positive H36 pCAR-OF cells”, the “cells positive for b-gal” value ([2]; H36 pCAR-OF cells grown in the presence of DMA, FIG. 3) was “Approximately 3%” and the “BAT26 polyA repeat alleles by sequence analysis of clones” value ([3]; 293 cells treated with DMA, control clone homozygous for 26 nt polyA repeat) was “multiple alleles ranging from the wild-type with 26 polyA repeat to shorter alleles (24 polyA repeat) and larger alleles (28 polyA repeat)”. For the same compound, the “altered BAT26 alleles (microsatellite instability)” value ([3]; 293 cells, 250 μM DMA, 14-17 days, PCR and gel electrophoresis) was “showed the presence of an altered allele; also recorded: presence of a new allele in cells treated with DMA”, the “concentration at which toxicity occurs” value (Arabidopsis thaliana [4]; Arabidopsis seeds, continuous culture, from Table 2) was 10 mM and the Dead (Arabidopsis thaliana [4]; concentration 0.1, 10 days) was 0 per 100 seeds. The Inter (Arabidopsis thaliana [4]; concentration 0.1, 10 days, stunted root or shoot formation scored intermediate) was 0 per 100 seeds, the Dead (Arabidopsis thaliana [4]; concentration 0.5, 10 days) was 0 per 100 seeds and the Inter (Arabidopsis thaliana [4]; concentration 0.5, 10 days, stunted root or shoot formation) was 0 per 100 seeds. For the same compound, the Dead (Arabidopsis thaliana [4]; concentration 1.0, 10 days) was 0 per 100 seeds, the Inter (Arabidopsis thaliana [4]; concentration 1.0, 10 days, stunted root or shoot formation) was 0 per 100 seeds and the Dead (Arabidopsis thaliana [4]; concentration 2.5, 10 days) was 0 per 100 seeds. It also gave a Dead (Arabidopsis thaliana [4]; concentration 5.0, 10 days) of 0 per 100 seeds, a Dead (Arabidopsis thaliana [4]; concentration 10, 10 days) of 0 per 100 seeds and a Healthy (Arabidopsis thaliana [4]; concentration 12.5, 10 days on MS phytagar) of 0 per 100 seeds. The Dead (Arabidopsis thaliana [4]; concentration 12.5, 10 days) was 0 per 100 seeds, the Healthy (Arabidopsis thaliana [4]; concentration 25, 10 days on MS phytagar) was 0 per 100 seeds and the Dead (Arabidopsis thaliana [4]; concentration 25, 10 days) was 0 per 100 seeds. The Healthy (Arabidopsis thaliana [4]; concentration 50, 10 days on MS phytagar) was 0 per 100 seeds, the Inter (Arabidopsis thaliana [4]; concentration 50, 10 days, stunted root or shoot formation) was 0 per 100 seeds and the “offspring with small light green appearance (altered phenotype)” value (Arabidopsis thaliana [5]) was “Six”. For the same compound, the “phenotypically distinct plants among offspring at day 10” value (Arabidopsis thaliana [5]) was 7 out of 118, the “blue subclones (functional GUS) on YPD-ZEO-X-GLU plates” value [6] was “a subset of yeast expressing GUS-OF contain blue subclones” and the “concentration found to be non-toxic” value (human HEK293 cells) was 250 µM. The mutagenic activity [7] was “acts as a potent weak mutagen”.
With `CCOS(C)(=O)=O` [EMS, ethyl methanesulfonate] the “generation of β-galactosidase positive cells / MI and shifting of the polynucleotide tract in the pCAR-OF reporter” value [2] was “did not result in MI and/or the shifting of the polynulceotide tract in the pCAR-OF reporter”, the “concentration at which toxicity occurs” value (Arabidopsis thaliana [4]; Arabidopsis thaliana, in vivo, 10 days) was 0.25 mM and the Inter (Arabidopsis thaliana [4]; Arabidopsis thaliana, in vivo, 10 days, 0.1 mM) was 0 per 100 cells. It also gave a Healthy (Arabidopsis thaliana [4]; [8]) of 0 per 100 cells, an Inter (Arabidopsis thaliana [4]; [8]) of 0 per 100 cells and a Healthy (Arabidopsis thaliana [4]; [9]) of 0 per 100 cells. The Inter (Arabidopsis thaliana [4]; [9]) was 0 per 100 cells, the Healthy (Arabidopsis thaliana [4]; [10]) was 0 per 100 cells and the Inter (Arabidopsis thaliana [4]; [10]) was 0 per 100 cells. It also gave a Healthy (Arabidopsis thaliana [4]; [11]) of 0 per 100 cells, an Inter (Arabidopsis thaliana [4]; [11]) of 0 per 100 cells and a Healthy (Arabidopsis thaliana [4]; [12]) of 0 per 100 cells. For the same compound, the Inter (Arabidopsis thaliana [4]; [12]) was 0 per 100 cells, the Healthy (Arabidopsis thaliana [4]; [13]) was 0 per 100 cells and the Inter (Arabidopsis thaliana [4]; [13]) was 0 per 100 cells. For the same compound, the “offspring with small light green appearance (altered phenotype)” value (Arabidopsis thaliana [5]) was “No plants with altered phenotypes were observed”, the “phenotypically distinct plants among offspring at day 10” value (Arabidopsis thaliana [5]) was “no phenotypic difference was observed” and the “blue subclones (functional GUS) on YPD-ZEO-X-GLU plates” value [6] was “none are seen”.
In the case of `COc1ccc2nc3cc(Cl)ccc3c(NCCCNCCCl)c2c1` [ICR191], the “mutation induction in MMR defective cell lines” value (MMR defective cell lines) is listed as “produce enhanced mutation rates in already MMR defective cell lines”.
